Values of other authors in patent US20120308672A1, “COMPOSITIONS FOR HAIR AND BODY APPLICATION” (EQYSS GROOMING PRODUCTS, priority 2004, published 2012).

Tested on: mosquitoes
Details: topical repellent

**Q.** Which protection against mosquitoes does the source give for `CCN(CC)C(=O)c1cccc(C)c1` [DEET, N,N,-diethyl-m-toluamide] here?
**A.** effective and long-lasting protection
